Experiments:
Assay type in all cases: in vivo
[1] = tested on: glyphosate-resistant sourgrass (Digitaria insularis); assay: Post-emergence treatment test on glyphosate-resistant sourgrass, nicosulfuron WG formulations (Example 1); details: conclusion from Table 2
Procedure: Post-emergence treatment tests were conducted on glyphosate-resistant sourgrass (Digitaria insularis). Sourgrass plants were planted and kept in a greenhouse at about 24° C. and 85% humidity throughout the experiment.
The WG formulations were each diluted with water prior to treatment of the sourgrass plants.
The herbicidal efficiency of each formulation as determined by visual observation at each of 7, 14 and 20 days after the treatment.
The the efficacy of each formulation is represented by a comparison between the treated plants and the Control plants. A score of 0% represents no herbicidal activity. A score of 100% represents complete herbicidal activity (plants completely killed).

[2] = tested on: soybean plants; assay: Phytotoxicity test on soybean sown in treated plots at different times after treatment (Example 3); design: key: EWRC scale 1-9: 1 = no symptoms, 9 = total plant destruction
Procedure: Sourgrass plants were planted and kept at about 24° C. and 85% humidity throughout the experiment.
The sourgrass plants were treated with water dispersible granule (WG) formulations of nicosulfuron and/or glyphosate as summarised in Table 5.
Soybean seeds were sown separately in each of the treated plots 1 day, 7 days, 14 days, 20 days and 30 days after the treatment.
(§1) In order to quantify the damage caused to the soybean plants, visual analysis of phytotoxicity was conducted and recorded based on the scale proposed by the European Weed Research Council. The extent of damage on this scale varies from 1 to 9, where “1” represents absence of symptoms and “9” represents total plant destruction.
Evaluation was conducted 7 days, 14 days, 21 days and 28 days after emergence of the soybean plants.

[3] = tested on: soybean plants; assay: Phytotoxicity tests on soybean sown 20 days after treatment under conditions X1-X4 (Example 4); details: Nicosulfuron 75 g/ha, Glyphosate 0 g/ha, 150 L/ha, evaluated 7 days after emergence, EWRC scale 1-9
Procedure: Sourgrass plants were planted and kept at the conditions summarised in Table 7 below throughout the experiment:
The WG formulations were dispersed in water and applied to the locus of the sourgrass plants at a volumetric rate of 150 L/ha.
Soybean seeds were sown in a greenhouse in the treated plots 20 days after the treatment with the herbicide(s). The period of 20 days was determined by applying Formula I above to the parameters set out above.
as §1
Evaluation was conducted 7 days after emergence of the soybean plants.

With `COc1cc(OC)nc(NC(=O)NS(=O)(=O)c2ncccc2C(=O)N(C)C)n1` [Nicosulfuron, 2-(4,6-dimethoxypyrimidin-2-ylcarbamoylsulfamoyl)-N,N-dimethylnicotinamide] as the compound, how does the “control of sourgrass plants (in words)” value [1] read?
The value was “effective”.

What about the “Phytotoxicity Level” value ([2]; Nicosulfuron 50 g/ha, Glyphosate 0 g/ha (A3 of Table 5), soybean sown 1 day after treatment, EWRC scale 1 (absence of symptoms) to 9 (total plant destruction)) of the same compound?
Its value is 4.

What about the “Phytotoxicity Level” value ([2]; Nicosulfuron 50 g/ha, Glyphosate 0 g/ha (A3 of Table 5), soybean sown 7 days after treatment, EWRC scale 1-9) of the same compound?
Its value is 3.

What about the “Phytotoxicity Level” value ([2]; Nicosulfuron 50 g/ha, Glyphosate 0 g/ha (A3 of Table 5), soybean sown 14 days after treatment, EWRC scale 1-9) of the same compound?
The value was 2.

And the “Phytotoxicity Level” value ([2]; Nicosulfuron 50 g/ha, Glyphosate 0 g/ha (A3 of Table 5), soybean sown 20 days after treatment, EWRC scale 1-9)?
Its value is 1.

And the “Phytotoxicity Level” value ([2]; Nicosulfuron 50 g/ha, Glyphosate 0 g/ha (A3 of Table 5), soybean sown 30 days after treatment, EWRC scale 1-9)?
Its value is 1.

And the “Phytotoxicity Level” value ([2]; Nicosulfuron 75 g/ha, Glyphosate 0 g/ha (C3 of Table 5), soybean sown 1 day after treatment, EWRC scale 1-9)?
Its value is 4.

And the “Phytotoxicity Level” value ([2]; Nicosulfuron 75 g/ha, Glyphosate 0 g/ha (C3 of Table 5), soybean sown 7 days after treatment, EWRC scale 1-9)?
The value was 4.

What about the “Phytotoxicity Level” value ([2]; Nicosulfuron 75 g/ha, Glyphosate 0 g/ha (C3 of Table 5), soybean sown 14 days after treatment, EWRC scale 1-9) of the same compound?
Its value is 2.

And the “Phytotoxicity Level” value ([2]; Nicosulfuron 75 g/ha, Glyphosate 0 g/ha (C3 of Table 5), soybean sown 20 days after treatment, EWRC scale 1-9)?
Its value is 1.

And the “Phytotoxicity Level” value ([2]; Nicosulfuron 75 g/ha, Glyphosate 0 g/ha (C3 of Table 5), soybean sown 30 days after treatment, EWRC scale 1-9)?
Its value is 1.

What about the “Phytotoxicity Level” value ([3]; conditions X1 (17 ° C., 95% humidity, 8.5 hr sunlight per day), soybean sown 20 days after treatment) of the same compound?
Its value is 1.

And the “Phytotoxicity Level” value ([3]; conditions X2 (24 ° C., 85% humidity, 9 hr sunlight per day), sown 20 days after treatment)?
The value was 1.

What about the “Phytotoxicity Level” value ([3]; conditions X3 (32 ° C., 65% humidity, 9.5 hr sunlight per day), sown 20 days after treatment) of the same compound?
Its value is 1.

And the “Phytotoxicity Level” value ([3]; conditions X4 (37 ° C., 30% humidity, 10 hr sunlight per day), sown 20 days after treatment)?
Its value is 1.

Reference: patent publication US20220304308A1, “METHOD FOR CONTROLLING GROWTH OF GLYPHOSATE-TOLERANT PLANTS” (JIANGSU ROTAM CHEMISTRY CO., LTD., priority 2019, published 2022)
